Experimental data: publication PMC12141164, “Phase-1 study of vamotinib (PF-114), a 3rd generation BCR::ABL1 tyrosine kinase-inhibitor, in chronic myeloid leukaemia” (Annals of Hematology, 2025)
Read-outs that look alike come from different tables or passages of the source.

Assay: Pharmacokinetics in plasma after single- and multiple-dose administration
Format: in vivo, human
Experimental: Blood samples were obtained to evaluate pharmacokinetics and pharmacodynamics (Tables S1, S1.1, S1.2). Data on phosphorylated CrkL protein (pCrkL) concentration were evaluated in samples from 4 subjects.
Pharmacokinetic measurements were done on days 1 and 29–30 of treatment. […] Steady-state was reached after 8 days of dosing, Fig. 1.
PF-114 was determined in human plasma samples using validated analytical method. […] The analytical method used 200 µL of plasma sample for each analysis. Analyte was isolated from plasma by a solid-phase extraction procedure performed on Oasis MCX extraction columns.
According to the Protocol, population for the pharmacokinetic analysis consists of all patients, who took at least one dose of PF-114, with respect to which sufficient amount of data on concentration of the study drug in the blood. The analysis of data on pharmacokinetic properties of the drug is carried out in this population of patients. All PK analyses will be presented on two subsets described in more detail below:
The PK concentration set (PK-C): This set includes all treated subjects who have at least 1 measured concentration.
The PK parameter analysis set (PK-P): This set consists of subjects from PK-C, who have no major protocol violation relevant to the evaluation of Pharmacokinetics, and who have at least 1 estimated PK parameter. Listings include all available raw data without any exclusions.

[1] = human, plasma, oral, 50 mg, Multiple-dose administration
[2] = human, plasma, oral, 50 mg, Single-dose administration
[3] = human, plasma, oral, 100 mg, Multiple-dose administration
[4] = human, plasma, oral, 100 mg, Single-dose administration
[5] = human, plasma, oral, 200 mg, Multiple-dose administration
[6] = human, plasma, oral, 200 mg, Single-dose administration
[7] = human, plasma, oral, 300 mg, Multiple-dose administration
[8] = human, plasma, oral, 300 mg, Single-dose administration
[9] = human, plasma, oral, 400 mg, Multiple-dose administration
[10] = human, plasma, oral, 400 mg, Single-dose administration
[11] = human, plasma, oral, 500 mg, Multiple-dose administration
[12] = human, plasma, oral, 500 mg, Single-dose administration
[13] = human, plasma, oral, 600 mg, Multiple-dose administration
[14] = human, plasma, oral, 600 mg, Single-dose administration
[15] = human, plasma, oral, 750 mg, Single-dose administration

SMILES: Cc1ccc(C(=O)Nc2ccc(CN3CCN(C)CC3)c(C(F)(F)F)c2)cc1C#Cc1nnc2ccccn12 [vamotinib]
- Ctrough, Mean (Multiple-dose administration, 50 mg): 7,35 ng/ml
- Ctrough, Mean (Multiple-dose administration, 100 mg): 8,90 ng/ml
- Ctrough, Mean (Multiple-dose administration, 200 mg): 21,92 ng/ml
- Ctrough, Mean (Multiple-dose administration, 300 mg): 22,45 ng/ml
- Ctrough, Mean (Multiple-dose administration, 400 mg): 35,34 ng/ml
- Ctrough, Mean (Multiple-dose administration, 500 mg): 38,40 ng/ml
- Ctrough, Mean (Multiple-dose administration, 600 mg): 49,78 ng/ml
- linearity of pharmacokinetics (concentration-time profiles) (dose range 50–750 mg): linear or near-linear pharmacokinetics
- half-life (human, plasma, oral): 13.5 h
- Cmax [1]: 33.3 ng/mL
- Tmax [1]: 1.9 h
- AUC(0-t) (human, plasma, oral, 50 mg, Multiple-dose administration, 50 mg, read-out: AUC0-24, Mean): 445 ng·h/mL
- Cmax [2]: 25.3 ng/mL
- Tmax [2]: 2.67 h
- AUC(0-t) (human, plasma, oral, 50 mg, Single-dose administration, 50 mg, read-out: AUC0-t, Mean): 252 ng·h/mL
- Cmax [3]: 94 ng/mL
- Tmax [3]: 3.36 h
- AUC(0-t) (human, plasma, oral, 100 mg, Multiple-dose administration, 100 mg, read-out: AUC0-24, Mean): 1260 ng·h/mL
- Cmax [4]: 89.7 ng/mL
- Tmax [4]: 4.67 h
- AUC(0-t) (human, plasma, oral, 100 mg, Single-dose administration, 100 mg, read-out: AUC0-t, Mean): 1070 ng·h/mL
- Cmax [5]: 109 ng/mL
- Tmax [5]: 3.36 h
- AUC(0-t) (human, plasma, oral, 200 mg, Multiple-dose administration, 200 mg, read-out: AUC0-24, Mean): 1580 ng·h/mL
- Cmax [6]: 82.1 ng/mL
- Tmax [6]: 3.46 h
- AUC(0-t) (human, plasma, oral, 200 mg, Single-dose administration, 200 mg, read-out: AUC0-t, Mean): 1060 ng·h/mL
- Cmax [7]: 148 ng/mL
- Tmax [7]: 4.52 h
- AUC(0-t) (human, plasma, oral, 300 mg, Multiple-dose administration, 300 mg, read-out: AUC0-24, Mean): 2260 ng·h/mL
- Cmax [8]: 125 ng/mL
- Tmax [8]: 3.58 h
- AUC(0-t) (human, plasma, oral, 300 mg, Single-dose administration, 300 mg, read-out: AUC0-t, Mean): 1630 ng·h/mL
- Cmax [9]: 177 ng/mL
- Tmax [9]: 4 h
- AUC(0-t) (human, plasma, oral, 400 mg, Multiple-dose administration, 400 mg, read-out: AUC0-24, Mean): 2710 ng·h/mL
- Cmax [10]: 120 ng/mL
- Tmax [10]: 4.72 h
- AUC(0-t) (human, plasma, oral, 400 mg, Single-dose administration, 400 mg, read-out: AUC0-t, Mean): 1740 ng·h/mL
- Cmax [11]: 228 ng/mL
- Tmax [11]: 4.04 h
- AUC(0-t) (human, plasma, oral, 500 mg, Multiple-dose administration, 500 mg, read-out: AUC0-24, Mean): 3490 ng·h/mL
- Cmax [12]: 116 ng/mL
- Tmax [12]: 3.96 h
- AUC(0-t) (human, plasma, oral, 500 mg, Single-dose administration, 500 mg, read-out: AUC0-t, Mean): 1500 ng·h/mL
- Cmax [13]: 179 ng/mL
- Tmax [13]: 3.62 h
- AUC(0-t) (human, plasma, oral, 600 mg, Multiple-dose administration, 600 mg, read-out: AUC0-24, Mean): 2800 ng·h/mL
- Cmax [14]: 212 ng/mL
- Tmax [14]: 4.65 h
- AUC(0-t) (human, plasma, oral, 600 mg, Single-dose administration, 600 mg, read-out: AUC0-t, Mean): 3020 ng·h/mL
- Cmax [15]: 225 ng/mL
- Tmax [15]: 4.5 h
- AUC(0-t) (human, plasma, oral, 750 mg, Single-dose administration, 750 mg, read-out: AUC0-t, Mean): 3290 ng·h/mL
- time of dosing to reach steady-state (once daily dosing): 8 days
- concentration in the blood during the day (starting from a dose of 200 mg): exceeds 75 nM
